From patent US20230085307A1, “PYRIDAZINONE COMPOUND AND HERBICIDE” (NISSAN CHEMICAL CORPORATION, priority 2019, published 2023)

Columns and labels:
[1] = system: barnyard grass; assay: Test Example 4: herbicidal effect by soil treatment (Table 19, symbol H); format: in vivo, barnyard grass (Echinochloa crus-galli); conditions: for herbicidal effect rating, H: barnyard grass: amount of applied herbicide 320 g/ha; for H: barnyard grass, herbicidal effect rating: AAH 320 g/ha
In short: (§1)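 Scoring uses the grading scale of an earlier test, three weeks post-application. Treatment consists of spraying a diluted emulsion formulation across the surface of sterilized diluvial soil in which seeds are buried near 1.5 cm deep; boxes are kept in a greenhouse between 25° C. and 30° C.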

[2] = system: velvetleaf; assay: Test Example 4: herbicidal effect by soil treatment (Table 19, symbol M); format: in vivo, velvetleaf (Abutilon theophrasti); conditions: for herbicidal effect rating, M: velvetleaf: amount of applied herbicide 320 g/ha; for M: velvetleaf, herbicidal effect rating: AAH 320 g/ha
In short: as §1

[3] = system: velvetleaf; assay: Test Example 5: herbicidal effect by foliage application, plastic box (Table 20, symbol M); format: in vivo, velvetleaf (Abutilon theophrasti); conditions: foliage application, three weeks after application; for M: velvetleaf, herbicidal effect: AAH 320 g/ha
In short: (§2)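 Post-emergence foliar test in sterilized diluvial soil. Compound applied as water-diluted emulsion at a predetermined rate to 14-day-old plants; evaluation at three weeks.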

[4] = system: late watergrass; assay: Test Example 1: herbicidal activity, application before weed generation under submerged conditions (Table 16, symbol A); format: in vivo, late watergrass (Echinochloa oryzicola); conditions: 320 g/ha applied herbicide
In short: (§3)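 Alluvial soil was flooded to 4 cm depth, weed seeds were sown mixed and 2.5-leaf rice seedlings were transplanted. On sowing day, the compound's emulsion, diluted in water to a set dose, was applied to the water surface. Plants grew at 25–30 °C and were scored 0–5 after three weeks.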

[5] = system: lambsquarters; assay: Test Example 5: herbicidal effect by foliage application, plastic box (Table 20, symbol O); format: in vivo, lambsquarters (Chenopodium album); conditions: foliage application, three weeks after application; for O: lambsquarters, herbicidal effect: AAH 320 g/ha
In short: as §2

[6] = system: southern crabgrass; assay: Test Example 4: herbicidal effect by soil treatment (Table 19, symbol F); format: in vivo, southern crabgrass (Digitaria ciliaris); conditions: for herbicidal effect rating, F: southern crabgrass: amount of applied herbicide 320 g/ha; for F: southern crabgrass, herbicidal effect rating: AAH 320 g/ha
In short: as §1

[7] = system: southern crabgrass; assay: Test Example 5: herbicidal effect by foliage application, plastic box (Table 20, symbol F); format: in vivo, southern crabgrass (Digitaria ciliaris); conditions: foliage application, three weeks after application; for F: southern crabgrass, herbicidal effect: AAH 320 g/ha
In short: as §2

[8] = system: lambsquarters; assay: Test Example 4: herbicidal effect by soil treatment (Table 19, symbol O); format: in vivo, lambsquarters (Chenopodium album); conditions: for herbicidal effect rating, O: lambsquarters: amount of applied herbicide 320 g/ha; for O: lambsquarters, herbicidal effect rating: AAH 320 g/ha
In short: as §1

[9] = system: windgrass; assay: Test Example 4: herbicidal effect by soil treatment (Table 19, symbol L); format: in vivo, windgrass (Apera spica-venti); conditions: for herbicidal effect rating, L: windgrass: amount of applied herbicide 320 g/ha; for L: windgrass, herbicidal effect rating: AAH 320 g/ha
In short: as §1

[10] = system: Italian ryegrass; assay: Test Example 5: herbicidal effect by foliage application, plastic box (Table 20, symbol K); format: in vivo, Italian ryegrass (Lolium multiflorum); conditions: foliage application, three weeks after application; for K: Italian ryegrass, herbicidal effect: AAH 320 g/ha
In short: as §2

[11] = system: Japanese bulrush; assay: Test Example 1: herbicidal activity, application before weed generation under submerged conditions (Table 16, symbol B); format: in vivo, Japanese bulrush (Schoenoplectus juncoides); conditions: 320 g/ha applied herbicide
In short: as §3

[12] = system: Japanese bulrush; assay: Test Example 2: herbicidal activity, application during weed generation under submerged conditions (Table 17, symbol B); format: in vivo, Japanese bulrush (Schoenoplectus juncoides); conditions: AAH 320 g/ha; application during weed generation, submerged conditions
In short: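 3-wk visual-criteria score after one water-surface dose. Emulsion formulation, water-diluted to set rate; applied at 1–2 leaf stage; alluvial soil, 4 cm standing water; seeds co-sown; greenhouse 25–30° C.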

[13] = system: wild oat; assay: Test Example 5: herbicidal effect by foliage application, plastic box (Table 20, symbol I); format: in vivo, wild oat (Avena fatua); conditions: foliage application, three weeks after application; for I: wild oat, herbicidal effect: AAH 320 g/ha
In short: as §2

[14] = system: windgrass; assay: Test Example 5: herbicidal effect by foliage application, plastic box (Table 20, symbol L); format: in vivo, windgrass (Apera spica-venti); conditions: foliage application, three weeks after application; for L: windgrass, herbicidal effect: AAH 320 g/ha
In short: as §2

[15] = system: barnyard grass; assay: Test Example 3: herbicidal effect by foliage application, Wagner pot (Table 18, symbol H); format: in vivo, barnyard grass (Echinochloa crus-galli); conditions: 320 g/ha
In short: (§4)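 Plants were sown in alluvial soil held under 0.1–0.5 cm standing water and grown 14 days in a greenhouse at 25–30 °C. An emulsifiable formulation, water-diluted to the set dose, was then sprayed onto the foliage, and effects were scored three weeks later using previously defined criteria.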

[16] = system: Chinese sprangletop; assay: Test Example 3: herbicidal effect by foliage application, Wagner pot (Table 18, symbol D); format: in vivo, chinese sprangletop (Leptochloa chinensis); conditions: 320 g/ha
In short: as §4

[17] = system: persian speedwell; assay: Test Example 5: herbicidal effect by foliage application, plastic box (Table 20, symbol R); format: in vivo, Persian speedwell (Veronica persica); conditions: foliage application, three weeks after application; for R: persian speedwell, herbicidal effect: AAH 320 g/ha
In short: as §2

Compound | herbicidal effect rating, H: barnyard grass [1] | herbicidal effect rating, M: velvetleaf [2] | Herbicidal effect on A: late watergrass (grade 0-5) [4] | herbicidal effect rating, F: southern crabgrass [6] | herbicidal effect rating, O: lambsquarters [8] | herbicidal effect rating, L: windgrass [9] | Herbicidal effect on B: Japanese bulrush (grade 0-5) [11] | herbicidal effect rating, B: Japanese bulrush [12] | herbicidal effect on H (barnyard grass), rating 0-5 [15] | herbicidal effect on D (Chinese sprangletop), rating 0-5 [16] | M: velvetleaf, herbicidal effect [3] | O: lambsquarters, herbicidal effect [5] | F: southern crabgrass, herbicidal effect [7] | K: Italian ryegrass, herbicidal effect [10] | I: wild oat, herbicidal effect [13] | L: windgrass, herbicidal effect [14] | R: persian speedwell, herbicidal effect [17] | H: barnyard grass, herbicidal effect rating [1] | M: velvetleaf, herbicidal effect rating [2] | F: southern crabgrass, herbicidal effect rating [6] | other results
Cc1nn(C)c(=O)c(-c2c(-c3ccc4c(c3)OCO4)sc3ccccc23)c1O [1-087] | 4 (Herbicidal rate of 70% or more and less than 90%) | 0 (Herbicidal rate of 5% or less (almost no effect)) | 3 (Herbicidal rate of 40% or more and less than 70%) | 2 (Herbicidal rate of 20% or more and less than 40%) | 5 (Herbicidal rate of 90% or more (almost completely withered)) | 0 (Herbicidal rate of 5% or less (almost no effect)) | 1 (Herbicidal rate of 5% or more and less than 20%) | 1 (Herbicidal rate of 5% or more and less than 20%) | 4 (Herbicidal rate of 70% or more and less than 90%) | 3 (Herbicidal rate of 40% or more and less than 70%) |  |  |  |  |  |  |  |  |  |  | herbicidal effect grade, M: velvetleaf ([3]; 320 g/ha): 4 (Herbicidal rate of 70% or more and less than 90%); herbicidal effect grade, O: lambsquarters ([5]; 320 g/ha): 3 (Herbicidal rate of 40% or more and less than 70%); herbicidal effect grade, F: southern crabgrass ([7]; 320 g/ha): 5 (Herbicidal rate of 90% or more (almost completely withered)); herbicidal effect grade, K: Italian ryegrass ([10]; 320 g/ha): 3 (Herbicidal rate of 40% or more and less than 70%); herbicidal effect grade, I: wild oat ([13]; 320 g/ha): 1 (Herbicidal rate of 5% or more and less than 20%); herbicidal effect grade, L: windgrass ([14]; 320 g/ha): 0 (Herbicidal rate of 5% or less (almost no effect)); herbicidal effect grade, R: persian speedwell ([17]; 320 g/ha): 5 (Herbicidal rate of 90% or more (almost completely withered))
Cc1nn(C)c(=O)c(-c2c(-c3ccc4c(c3)OCCO4)sc3ccccc23)c1O [1-089] | 5 (Herbicidal rate of 90% or more (almost completely withered)) | 2 (Herbicidal rate of 20% or more and less than 40%) | 5 (Herbicidal rate of 90% or more (almost completely withered)) | 3 (Herbicidal rate of 40% or more and less than 70%) | 5 (Herbicidal rate of 90% or more (almost completely withered)) | 0 (Herbicidal rate of 5% or less (almost no effect)) | 4 (Herbicidal rate of 70% or more and less than 90%) | 1 (Herbicidal rate of 5% or more and less than 20%) | 5 (Herbicidal rate of 90% or more (almost completely withered)) | 0 (Herbicidal rate of 5% or less (almost no effect)) | 5 (Herbicidal rate of 90% or more (almost completely withered)) | 3 (Herbicidal rate of 40% or more and less than 70%) | 4 (Herbicidal rate of 70% or more and less than 90%) | 5 (Herbicidal rate of 90% or more (almost completely withered)) | 0 (Herbicidal rate of 5% or less (almost no effect)) | 4 (Herbicidal rate of 70% or more and less than 90%) | 5 (Herbicidal rate of 90% or more (almost completely withered)) |  |  |  | 
CCCC(=O)Oc1c(C)nn(C)c(=O)c1-c1c(-c2ccc(C(F)(F)F)cc2)sc2ccccc12 [1-130] |  |  | 3 (Herbicidal rate of 40% or more and less than 70%) |  |  |  | 3 (Herbicidal rate of 40% or more and less than 70%) | 2 (Herbicidal rate of 20% or more and less than 40%) | 4 (Herbicidal rate of 70% or more and less than 90%) | 3 (Herbicidal rate of 40% or more and less than 70%) | 5 (Herbicidal rate of 90% or more (almost completely withered)) | 4 (Herbicidal rate of 70% or more and less than 90%) | 0 (Herbicidal rate of 5% or less (almost no effect)) | 5 (Herbicidal rate of 90% or more (almost completely withered)) | 0 (Herbicidal rate of 5% or less (almost no effect)) | 3 (Herbicidal rate of 40% or more and less than 70%) | 5 (Herbicidal rate of 90% or more (almost completely withered)) | 3 (Herbicidal rate of 40% or more and less than 70%) | 1 (Herbicidal rate of 5% or more and less than 20%) | 1 (Herbicidal rate of 5% or more and less than 20%) | O: lambsquarters, herbicidal effect rating [8]: 4 (Herbicidal rate of 70% or more and less than 90%); L: windgrass, herbicidal effect rating [9]: 0 (Herbicidal rate of 5% or less (almost no effect))
C#CCOc1ccc(-c2sc3ccccc3c2-c2c(O)c(C)nn(C)c2=O)cc1 [1-136] |  |  | 3 (Herbicidal rate of 40% or more and less than 70%) |  |  |  | 2 (Herbicidal rate of 20% or more and less than 40%) | 2 (Herbicidal rate of 20% or more and less than 40%) | 5 (Herbicidal rate of 90% or more (almost completely withered)) | 4 (Herbicidal rate of 70% or more and less than 90%) | 4 (Herbicidal rate of 70% or more and less than 90%) | 4 (Herbicidal rate of 70% or more and less than 90%) | 0 (Herbicidal rate of 5% or less (almost no effect)) | 5 (Herbicidal rate of 90% or more (almost completely withered)) | 0 (Herbicidal rate of 5% or less (almost no effect)) | 5 (Herbicidal rate of 90% or more (almost completely withered)) | 5 (Herbicidal rate of 90% or more (almost completely withered)) | 4 (Herbicidal rate of 70% or more and less than 90%) | 3 (Herbicidal rate of 40% or more and less than 70%) | 2 (Herbicidal rate of 20% or more and less than 40%) | O: lambsquarters, herbicidal effect rating [8]: 5 (Herbicidal rate of 90% or more (almost completely withered)); L: windgrass, herbicidal effect rating [9]: 0 (Herbicidal rate of 5% or less (almost no effect))
